Earlier results as cited in patent US11008566B2, “Method for obtaining antibody” (Chiome Bioscience Inc., priority 2016, dated 2021).

Details: antibody drugs, Non Patent Literatures 1 and 2

In the case of “Lucentis: antibody drug (registered trademark), high-affinity antibody”, the Kd is given as 46 pM.
